Test results as given in patent publication US10633348B2, “Methods to treat lymphoplasmacytic lymphoma” (Dana-Farber Cancer Institute, Inc., priority 2013, dated 2020).
pEC50: −log10 of the molar value.

Key:
[1] = system: OCI-Ly3; experiment: CellTiter-Glo cell viability assay; type: cell-based
Experimental: (§1) CellTiter-Glo® Luminescent cell viability assay (Promega) was used to assess cell survival following treatment with the compounds described. Cells were seeded into 384 well plates with the EL406 Combination Washer Dispenser (BioTek Instruments, Inc.) and the compounds were injected into the cells culture media with the JANUS Automated Workstation (PerkinElmer Inc.). Cells were treated with a series diluted inhibitors (20˜0.04 μM) for 72 hours at 37° C. Luminescent measurement is performed using the 2104 Envision® Multilabel Reader (PerkinElmer Inc.).

[2] = system: Ramos; experiment: CellTiter-Glo cell viability assay; type: cell-based; conditions: Homo sapiens
Experimental: as §1

[3] = system: MWCL-1; experiment: CellTiter-Glo cell viability assay; type: cell-based
Experimental: as §1

[4] = system: OCI-Ly19; experiment: CellTiter-Glo cell viability assay; type: cell-based; conditions: Homo sapiens
Experimental: as §1

[5] = system: BCWM.1; experiment: CellTiter-Glo cell viability assay; type: cell-based
Experimental: as §1

[6] = system: HCK; type: biochemical; conditions: read-out: HCK IC50 (nM) Inv
Source text: The in vitro activity of the compounds described herein in inhibiting TAK1, HCK and other kinases were obtained using an Invitrogen Select Screening assay as known in the art. The IC50 values determined from this assay are shown below.

[7] = system: TMD8; experiment: CellTiter-Glo cell viability assay; type: cell-based; conditions: Homo sapiens, 72 hours
Experimental: as §1

[8] = system: OCI-Ly7; experiment: CellTiter-Glo cell viability assay; type: cell-based; conditions: Homo sapiens, 72 hours
Experimental: as §1

CCN1CCN(Cc2ccc(NC(=O)c3ccc(C)c(Oc4cc(NC)ncn4)c3)cc2C(F)(F)F)CC1 [(A-1), N-(4-((4-ethylpiperazin-1-yl)methyl)-3-(trifluoromethyl)phenyl)-4-methyl-3-((6-(methylamino)pyrimidin-4-yl)oxy)benzamide]
pEC50 ([1]; Homo sapiens, OCI-Ly3, 72 h): 4.94
pEC50 ([2]; 72 hours): 5.02
pEC50 ([3]; 72 h): 5.40
pEC50 ([4]; OCI-LY19, 72 hours): 5.30
pEC50 ([5]; BCWM1, 72 h): 5.76
IC50 [6]: 275 nM

CCC(=O)Nc1cc(Oc2cc(C(=O)Nc3ccc(CN4CCN(CC)CC4)c(C(F)(F)F)c3)ccc2C)ncn1 [(A-2), N-(4-((4-ethylpiperazin-1-yl)methyl)-3-(trifluoromethyl)phenyl)-4-methyl-3-((6-propionamidopyrimidin-4-yl)oxy)benzamide]
pEC50 ([1]; Homo sapiens, OCI-Ly3, 72 h): 5.53
pEC50 ([2]; 72 h): 5.27
pEC50 ([3]; 72 h): 5.87
pEC50 ([4]; OCI-LY19, 72 h): 5.76
pEC50 ([5]; BCWM1, 72 h): 7.38

CCN1CCN(Cc2ccc(NC(=O)c3ccc(C)c(Oc4cc(NC(=O)C5CC5)ncn4)c3)cc2C(F)(F)F)CC1 [(A-3), 3-((6-(cyclopropanecarboxamido)pyrimidin-4-yl)oxy)-N-(4-((4-ethylpiperazin-1-yl)methyl)-3-(trifluoromethyl)phenyl)-4-methylbenzamide]
pEC50 ([1]; Homo sapiens, OCI-Ly3, 72 h): 6.32
pEC50 ([2]; 72 h): 5.57
pEC50 ([3]; 72 h): 6.04
pEC50 ([4]; OCI-LY19, 72 h): 6.22
pEC50 ([5]; BCWM1, 72 h): 7.30

CCN1CCN(Cc2ccc(NC(=O)c3ccc(C)c(Oc4cc(Nc5ccn[nH]5)ncn4)c3)cc2C(F)(F)F)CC1 [(A-6), 3-((6-((1H-pyrazol-5-yl)amino)pyrimidin-4-yl)oxy)-N-(4-((4-ethylpiperazin-1-yl)methyl)-3-(trifluoromethyl)phenyl)-4-methylbenzamide]
pEC50 ([1]; Homo sapiens, OCI-Ly3, 72 h): 5.32
pEC50 ([2]; 72 h): 5.51
pEC50 ([3]; 72 h): 6.93
pEC50 ([4]; OCI-LY19, 72 h): 6.52
pEC50 ([5]; BCWM1, 72 h): 7.07

CCN1CCN(Cc2ccc(NC(=O)c3ccc(C)c(Oc4cc(Nc5cn[nH]c5)ncn4)c3)cc2C(F)(F)F)CC1 [(A-7), 3-((6-((1H-pyrazol-4-yl)amino)pyrimidin-4-yl)oxy)-N-(4-((4-ethylpiperazin-1-yl)methyl)-3-(trifluoromethyl)phenyl)-4-methylbenzamide]
pEC50 ([1]; Homo sapiens, OCI-Ly3, 72 h): 5.40
pEC50 ([2]; 72 h): 5.52
pEC50 ([3]; 72 h): 7.15
pEC50 ([4]; OCI-LY19, 72 h): 6.72
pEC50 ([5]; BCWM1, 72 h): 7.32

CCN1CCN(Cc2ccc(NC(=O)c3ccc(C)c(Oc4cc(NNC(C)=O)ncn4)c3)cc2C(F)(F)F)CC1 [(A-9), 3-((6-(2-acetylhydrazinyl)pyrimidin-4-yl)oxy)-N-(4-((4-ethylpiperazin-1-yl)methyl)-3-(trifluoromethyl)phenyl)-4-methylbenzamide]
pEC50 ([1]; 72 hours): < 4.70
pEC50 ([1]; Homo sapiens, OCI-Ly3, 72 h): 4.71
pEC50 ([2]; 72 hours): < 4.70
pEC50 ([3]; 72 h): 4.73
pEC50 ([3]; 72 hours): < 4.70
pEC50 ([4]; OCI-LY19, 72 hours): < 4.70
pEC50 ([5]; 72 hours): 5.19
pEC50 ([5]; BCWM1, 72 h): 4.97
IC50 [6]: > 10000 nM

CCN1CCN(Cc2ccc(NC(=O)c3ccc(C)c(Oc4cc(NC5CNC5)ncn4)c3)cc2C(F)(F)F)CC1 [(A-10), 3-((6-(azetidin-3-ylamino)pyrimidin-4-yl)oxy)-N-(4-((4-ethylpiperazin-1-yl)methyl)-3-(trifluoromethyl)phenyl)-4-methylbenzamide]
pEC50 ([2]; 72 hours): < 4.70
pEC50 ([3]; 72 h): 4.61
pEC50 ([3]; 72 hours): < 4.70
pEC50 ([4]; OCI-LY19, 72 hours): < 4.70
IC50 [6]: > 10000 nM

CCN1CCN(Cc2ccc(NC(=O)c3ccc(C)c(Oc4cc(NN(C)C)ncn4)c3)cc2C(F)(F)F)CC1 [(A-11), 3-((6-(2,2-dimethylhydrazinyl)pyrimidin-4-yl)oxy)-N-(4-((4-ethylpiperazin-1-yl)methyl)-3-(trifluoromethyl)phenyl)-4-methylhenzamide]
pEC50 ([1]; Homo sapiens, OCI-Ly3, 72 h): < 4.70
pEC50 ([2]; 72 hours): < 4.70
pEC50 ([3]; 72 h): < 4.70
pEC50 ([4]; OCI-LY19, 72 hours): < 4.70
pEC50 ([5]; BCWM1, 72 h): 4.71
IC50 [6]: > 10000 nM

CCN1CCN(Cc2ccc(NC(=O)c3ccc(C)c(Oc4cc(Nc5ccn(C)n5)ncn4)c3)cc2C(F)(F)F)CC1 [(A-12), N-(4-((4-ethylpiperazin-1-yl)methyl)-3-(trifluoromethyl)phenyl)-4-methyl-3-((6-((1-methyl-1H-pyrazol-3-yl)amino)pyrimidin-4-yl)oxy)benzamide]
pEC50 ([2]; 72 h): 5.53
pEC50 ([3]; 72 h): 7.12
pEC50 ([3]; 72 hours): 7.15
pEC50 ([4]; OCI-LY19, 72 h): 6.68
pEC50 ([5]; 72 hours): 7.15
pEC50 ([5]; BCWM1, 72 h): 7.42

CCN1CCN(Cc2ccc(NC(=O)c3ccc(C)c(Oc4cc(NC5COC5)ncn4)c3)cc2C(F)(F)F)CC1 [(A-13), N-(4-((4-ethylpiperazin-1-yl)methyl)-3-(trifluoromethyl)phenyl)-4-methyl-3-((6-(oxetan-3-ylamino)pyrimidin-4-yl)oxy)benzamide]
pEC50 ([1]; 72 hours): 5.76
pEC50 ([1]; Homo sapiens, OCI-Ly3, 72 h): 5.92
pEC50 ([2]; 72 h): 5.49
pEC50 ([3]; 72 h): 5.75
pEC50 ([3]; 72 hours): 5.54
pEC50 ([4]; OCI-LY19, 72 h): 5.64

CCN1CCN(Cc2ccc(NC(=O)c3ccc(C)c(Oc4ccnc(Nc5cnoc5)n4)c3)cc2C(F)(F)F)CC1 [(A-15), N-(4-((4-ethylpiperazin-1-yl)methyl)-3-(trifluoromethyl)phenyl)-3-((2-(isoxazol-4-ylamino)pyrimidin-4-yl)oxy)-4-methylbenzamide]
pEC50 [7]: 6.41
pEC50 [8]: 6.10
pEC50 ([2]; 72 h): 5.33
pEC50 ([3]; 72 h): 6.14
pEC50 ([4]; OCI-LY19, 72 h): 6.51
pEC50 ([5]; BCWM1, 72 h): 6.73

CCN1CCN(Cc2ccc(NC(=O)c3ccc(C)c(Oc4cc(Nc5cnoc5)ncn4)c3)cc2C(F)(F)F)CC1 [(A-16), N-(4-((4-ethylpiperazin-1-yl)methyl)-3-(trifluoromethyl)phenyl)-3-((6-(isoxazol-4-ylamino)pyrimidin-4-yl)oxy)-4-methylbenzamide]
pEC50 [7]: 6.07
pEC50 [8]: 5.99
pEC50 ([2]; 72 hours): 5.88
pEC50 ([3]; 72 h): 5.77
pEC50 ([4]; OCI-LY19, 72 hours): 6.11
pEC50 ([5]; BCWM1, 72 h): 6.21

C=CC(=O)NNc1cc(Oc2cc(C(=O)Nc3ccc(CN4CCN(CC)CC4)c(C(F)(F)F)c3)ccc2C)ncn1 [(A-18)]
pEC50 ([2]; 72 h): 5.14
pEC50 ([3]; 72 h): 5.39
pEC50 ([3]; 72 hours): 5.17
pEC50 ([4]; OCI-LY19, 72 h): 5.56
pEC50 ([5]; 72 hours): 5.43
pEC50 ([5]; BCWM1, 72 h): 5.70

Cc1ccc(C(=O)Nc2cccc(C(C)(C)C#N)c2)cc1Oc1ncnc2[nH]ccc12 [(I-11), 3-((7H-pyrrolo[2,3-d]pyrimidin-4-yl)oxy)-N-(3-(2-cyanopropan-2-yl)phenyl)-4-methylbenzamide]
pEC50 [7]: 5.46
pEC50 [8]: 5.95
pEC50 ([1]; Homo sapiens, OCI-Ly3, 72 h): 5.01
pEC50 ([2]; 72 hours): 5.41
pEC50 ([3]; 72 h): 5.84
pEC50 ([5]; BCWM1, 72 h): 5.31
